{"source": "patent US20070249639A1", "about": "“Use of 9H-Purine-2,6-Diamine Derivatives in the Treatment of Proliferative Diseases and Novel 9H-Purine-2,6-Diamine Derivatives” (priority 2004, published 2007)"}
{"target": "T1, human topoisomerase II α (Homo sapiens, UniProt P11388)", "T1 construct": "purchased Professor Neil Osheroff (Vanderbilt University, Nashville, Tenn., USA)", "T1 sequence (P11388 whole entry)": "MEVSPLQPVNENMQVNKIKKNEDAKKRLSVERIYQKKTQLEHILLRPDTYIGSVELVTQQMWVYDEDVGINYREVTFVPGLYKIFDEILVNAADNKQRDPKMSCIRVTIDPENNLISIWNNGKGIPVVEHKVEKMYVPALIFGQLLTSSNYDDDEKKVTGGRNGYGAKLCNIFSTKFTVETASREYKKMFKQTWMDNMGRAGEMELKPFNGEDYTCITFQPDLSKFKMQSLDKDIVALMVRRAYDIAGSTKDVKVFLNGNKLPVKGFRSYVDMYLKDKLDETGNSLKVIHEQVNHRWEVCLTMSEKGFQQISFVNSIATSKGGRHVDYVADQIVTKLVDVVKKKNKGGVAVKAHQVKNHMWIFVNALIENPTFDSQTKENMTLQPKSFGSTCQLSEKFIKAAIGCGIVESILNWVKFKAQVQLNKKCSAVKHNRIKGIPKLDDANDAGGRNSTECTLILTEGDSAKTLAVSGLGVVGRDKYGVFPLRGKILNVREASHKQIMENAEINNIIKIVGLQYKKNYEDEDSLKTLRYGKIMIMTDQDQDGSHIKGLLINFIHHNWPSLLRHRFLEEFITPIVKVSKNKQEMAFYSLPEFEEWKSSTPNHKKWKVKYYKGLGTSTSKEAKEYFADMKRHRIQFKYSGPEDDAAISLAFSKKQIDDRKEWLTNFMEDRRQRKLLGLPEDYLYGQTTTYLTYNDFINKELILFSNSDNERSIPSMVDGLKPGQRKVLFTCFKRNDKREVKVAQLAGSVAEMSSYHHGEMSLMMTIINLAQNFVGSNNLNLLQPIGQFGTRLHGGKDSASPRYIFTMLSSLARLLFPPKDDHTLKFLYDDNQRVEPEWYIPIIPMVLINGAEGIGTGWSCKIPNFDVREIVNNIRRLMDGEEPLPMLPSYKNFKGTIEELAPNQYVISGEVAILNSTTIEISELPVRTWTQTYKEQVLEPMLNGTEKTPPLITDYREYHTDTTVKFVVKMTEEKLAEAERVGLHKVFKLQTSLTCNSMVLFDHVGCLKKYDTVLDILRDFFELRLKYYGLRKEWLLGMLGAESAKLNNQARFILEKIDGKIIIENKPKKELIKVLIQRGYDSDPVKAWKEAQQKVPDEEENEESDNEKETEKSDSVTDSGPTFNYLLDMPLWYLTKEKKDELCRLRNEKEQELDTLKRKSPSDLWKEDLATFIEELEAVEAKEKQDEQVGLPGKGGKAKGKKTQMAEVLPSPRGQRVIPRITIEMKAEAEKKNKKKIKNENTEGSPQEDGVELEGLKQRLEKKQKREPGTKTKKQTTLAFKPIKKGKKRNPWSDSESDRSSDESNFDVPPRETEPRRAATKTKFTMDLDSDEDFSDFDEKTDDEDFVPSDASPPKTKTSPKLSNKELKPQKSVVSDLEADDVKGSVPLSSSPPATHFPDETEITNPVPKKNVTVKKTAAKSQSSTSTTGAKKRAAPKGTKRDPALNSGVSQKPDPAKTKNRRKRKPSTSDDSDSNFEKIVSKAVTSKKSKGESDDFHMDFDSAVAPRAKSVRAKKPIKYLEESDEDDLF", "test": "Topoisomerase II ATPase assay (Malachite Green)", "assay_type": "biochemical", "conditions": "not given", "method": "(§1) The inhibition of topoisomerase II is measured as follows:\n(§2) Purified human topoisomerase II α was purchased from Professor Neil Osheroff (Vanderbilt University—Nashville, Tenn., USA).\n(§3) The pUC18 (Stratagene) plasmid was introduced into Escherichia coil XL-1 (Stratagene) and purified with the HiSpeed Plasmid Purification kit (Qiagen) according to the manufacturer instructions. The purity of the DNA preparations was evaluated spectrophotometrically (OD260/OD280 ratio) and by agarose gel.\n(§4) Preparation of the Malachite Green Reagent:\n(§5) Three volumes of 0.045% malachite green (Sigma, catalog no. M-9636) diluted in water are mixed for 20 min at room temperature with one volume of 4.2% ammonium molybdate (Axon Lab AG, catalog no. A-2246) diluted in 4 N HCl. After mixing, Triton X-100 (Merck, catalog no. 1.12298) is added to a final concentration of 0.01%. The solution is filtered at 0.2 μm and stored at room temperature in the dark.\n(§6) ATP hydrolysis was monitored by measuring the production of inorganic phosphate released during the catalytic cycle of topoisomerase II α with acidic molybdate and malachite green (Lanzetta,et al., An improved assay for nanomole amounts of inorganic phosphate, Anal Biochem 1979;100:95-7). Briefly, human topoisomerase II α is pre-incubated at 37° C. for 10 min in 90 μl reaction buffer (10 mM Tris.HCl pH 7.9, 175 mM KCl, 1 mM EDTA, 2 mM DTT, 5 mM MgCl2, 2.5% glycerol) in the presence of the indicated amount of pUC18 and DMSO in F96 maxisorp Nunclmmuno plates (Nunc). The reaction is initiated by the addition of 10 μl ATP at the indicated concentrations and is carried out for 30 min at 37° C. under constant agitation. The reaction is stopped by the addition of 200 μl molybdate/malachite green solution and the absorbance is immediately measured at 630 nm. The OD630 value is measured in the absence of protein for each ATP concentration (background) is subtracted from the value obtained in the presence of enzyme. A standard curve with inorganic phosphate is used to determine the amount of inorganic phosphate produced during the reaction and to ensure that the measures are in the linear range of the assay. The kinetic parameters of the enzymes are determined from measurements (at least in duplicate) of the initial rates at different ATP concentrations. The data are analyzed with GraFit (Erithacus Software).\n(§7) The compounds are tested at 10 μM of concentration to determine their inhibition potential given % of inhibition of the TOPO II ATPase activity.\n(§8) For the determination of the IC50, the procedure is repeated for different concentrations of test compound selected to cover the range of 0% to 100% inhibition and the concentration at which 50% inhibition of topoisomerase II occurs (IC50) for each compound is determined from concentration-inhibition curves in a conventional manner.", "units": {"IC50": "nM"}}
{"compound": "CC(C)(C)Nc1nc(Nc2ccc3ccccc3c2)nc2[nH]cnc12", "note": "[Example 15, N*6*-tert-Butyl-N*2*-naphthalen-2-yl-9H-purine-2,6-diamine]", "IC50": 3300}
{"compound": "CCc1nc2c(NC(C)(C)C)nc(Nc3ccc4nc(SC)sc4c3)nc2[nH]1", "note": "[Example 36, N*6*-tert-Butyl-8-ethyl-N*2*-(2-methylsulfanyl-benzothiazol-6-yl)-9H-purine-2,6-diamine]", "IC50": 900}
{"compound": "CCc1nc2c(NC(C)(C)C)nc(Nc3ccc4oc(=O)ccc4c3)nc2[nH]1", "note": "[Example 35, 6-(6-tert-Butylamino-8-ethyl-9H-purin-2-ylamino)-chromen-2-one]", "IC50": 2800}
{"compound": "CC(C)(C)Nc1nc(Nc2ccc3cc(OCCN4CCOCC4)ccc3c2)nc2[nH]cnc12", "note": "[Example 22, N*6*-tert-Butyl-N*2*-[6-(2-morpholin-4-yl-ethoxy)-naphthalen-2-yl]-9H-purine-2,6-diamine]", "IC50": 1800}
{"compound": "c1nc2c(NC3CCCCCC3)nc(Nc3ccc4ncsc4c3)nc2[nH]1", "note": "[Example 1, N*2*-Benzothiazol-6-yl-N*6*-cycloheptyl-9H-purine-2,6-diamine]", "IC50": 8400}
{"target": "T1, human topoisomerase II α", "test": "Topoisomerase II ATPase assay (Malachite Green)", "assay_type": "biochemical", "conditions": "OD measured at 630 nm", "method": "as §1, §2, §3, §4, §5, §6, §7, §8"}
{"compound": "c1nc2c(NC3CCCCCC3)nc(Nc3ccc4ncsc4c3)nc2[nH]1", "note": "[Example 1, N*2*-Benzothiazol-6-yl-N*6*-cycloheptyl-9H-purine-2,6-diamine]", "ATP competitive inhibitor activity": "ATP competitive inhibitor"}
{"target": "T1, human topoisomerase II α", "test": "Topoisomerase II ATPase assay (Malachite Green)", "assay_type": "biochemical", "conditions": "Percent inhibition @10 μM, Malachite Green assay; read-out: TOPO II inh. (inhibition of the TOPO ATPase activity)", "method": "as §1, §2, §3, §4, §5, §6, §7, §8", "units": {"inhibition at 10 µM": "%"}}
{"compound": "CC(C)(C)Nc1nc(Nc2ccc3ncsc3c2)nc2[nH]c(N)nc12", "note": "[Example 42, N*2*-Benzothiazol-6-yl-N*6*-tert-butyl-9H-purine-2,6,8-triamine]", "inhibition at 10 µM": "65 to 80"}
{"compound": "C=C(C=Cc1nc(OCCN2CCOCC2)sc1C)Nc1nc(NC(C)(C)C)c2nc(C3CC3)[nH]c2n1", "note": "[Example 39, N*6*-tert-Butyl-8-cyclopropyl-N*2*-{1-methylene-3-[5-methyl-2-(2-morpholin-4-yl-ethoxy)-thiazol-4-yl]-allyl}-9H-purine-2,6-diamine]", "inhibition at 10 µM": "65 to 80"}
{"compound": "c1ccc(C(Nc2nc(Nc3ccc4ncccc4c3)nc3[nH]cnc23)c2ccccc2)cc1", "note": "[Example 13, N*6*-Benzhydryl-N*2*-quinolin-6-yl-9H-purine-2,6-diamine]", "inhibition at 10 µM": "< 50"}
{"compound": "c1nc2c(NC3CCCCCC3)nc(Nc3ccc4nsnc4c3)nc2[nH]1", "note": "[Example 49, N*2*-Benzo[1,2,5]thiadiazol-5-yl-N*6*-cycloheptyl-9H-purine-2,6-diamine]", "inhibition at 10 µM": "< 50"}
{"compound": "CC(C)(C)Nc1nc(Nc2ccc3ccccc3c2)nc2[nH]cnc12", "note": "[Example 15, N*6*-tert-Butyl-N*2*-naphthalen-2-yl-9H-purine-2,6-diamine]", "inhibition at 10 µM": "65 to 80"}
{"compound": "CC(C)Cc1nc2c(NC(C)(C)C)nc(Nc3ccc4ccccc4c3)nc2[nH]1", "note": "[Example 74, N*6*-tert-Butyl-8-isobutyl-N*2*-naphthalen-2-yl-9H-purine-2,6-diamine]", "inhibition at 10 µM": "< 50"}
{"compound": "c1ccc(N2CCN(c3nc(Nc4ccc5ncsc5c4)nc4[nH]cnc34)CC2)nc1", "note": "[Example 60, Benzothiazol-6-yl-[6-(4-pyridin-2-yl-piperazin-1-yl)-9H-purin-2-yl]-amine]", "inhibition at 10 µM": "< 50"}
{"compound": "Cc1nc2ccc(Nc3nc(NC4CCCCCC4)c4nc[nH]c4n3)cc2s1", "note": "[Example 50, N*6*-Cycloheptyl-N*2*-(2-methyl-benzothiazol-6-yl)-9H-purine-2,6-diamine]", "inhibition at 10 µM": "50 to 65"}
{"compound": "CCc1nc2c(NC(C)(C)C)nc(Nc3ccc4nc(SC)sc4c3)nc2[nH]1", "note": "[Example 36, N*6*-tert-Butyl-8-ethyl-N*2*-(2-methylsulfanyl-benzothiazol-6-yl)-9H-purine-2,6-diamine]", "inhibition at 10 µM": "≥ 80"}
{"compound": "CCC(C)(C)Nc1nc(Nc2ccc3nc(C)sc3c2)nc2[nH]cnc12", "note": "[Example 54, N*6*-(1,1-Dimethyl-propyl)-N*2*-(2-methyl-benzothiazol-6-yl)-9H-purine-2,6-diamine]", "inhibition at 10 µM": "< 50"}
{"compound": "CCc1nc2c(NC(C)(C)C)nc(Nc3ccc4oc(=O)ccc4c3)nc2[nH]1", "note": "[Example 35, 6-(6-tert-Butylamino-8-ethyl-9H-purin-2-ylamino)-chromen-2-one]", "inhibition at 10 µM": "65 to 80"}
{"compound": "CCC(C)(C)Nc1nc(Nc2ccc3ncsc3c2)nc2[nH]cnc12", "note": "[Example 51, N*2*-Benzothiazol-6-yl-N*6*-(1,1-dimethyl-propyl)-9H-purine-2,6-diamine]", "inhibition at 10 µM": "50 to 65"}
{"compound": "c1cnc2ccc(Nc3nc(NC4CCCCCC4)c4nc[nH]c4n3)cc2c1", "note": "[Example 67, N*6*-Cycloheptyl-N*2*-quinolin-6-yl-9H-purine-2,6-diamine]", "inhibition at 10 µM": "< 50"}
{"compound": "CC(C)(C)Nc1nc(Nc2ccc3cc(OCCN4CCOCC4)ccc3c2)nc2[nH]cnc12", "note": "[Example 22, N*6*-tert-Butyl-N*2*-[6-(2-morpholin-4-yl-ethoxy)-naphthalen-2-yl]-9H-purine-2,6-diamine]", "inhibition at 10 µM": "≥ 80"}
{"compound": "CC(=O)c1nc2c(NC(C)(C)C)nc(Nc3ccc4ncsc4c3)nc2[nH]1", "note": "[Example 45, 1-[2-(Benzothiazol-6-ylamino)-6-tert-butylamino-9H-purin-8-yl]-ethanone]", "inhibition at 10 µM": "< 50"}
{"compound": "CC(C)(C)Nc1nc(Nc2ccc3ncsc3c2)nc2[nH]c(C3CC3)nc12", "note": "[Example 41, N*2*-Benzothiazol-6-yl-N*6*-tert-butyl-8-cyclopropyl-9H-purine-2,6-diamine]", "inhibition at 10 µM": "65 to 80"}
{"compound": "CCc1nc2c(N3CCCC3C)nc(Nc3ccc4ncsc4c3)nc2[nH]1", "note": "(stereo not drawn) [Example 29, Benzothiazol-6-yl-[8-ethyl-6-(2-methyl-pyrrolidin-1-yl)-9H-purin-2-yl]-amine]", "inhibition at 10 µM": "< 50"}
{"compound": "Cc1nc2c(NC3CCCCCC3)nc(Nc3ccc4ncsc4c3)nc2[nH]1", "note": "[Example 26, N*2*-Benzothiazol-6-yl-N*6*-cycloheptyl-8-methyl-9H-purine-2,6-diamine]", "inhibition at 10 µM": "< 50"}
{"compound": "COc1ccc2cc(Nc3nc(NC(C)(C)C)c4nc[nH]c4n3)ccc2c1", "note": "[Example 21, N*6*-tert-Butyl-N*2*-(6-methoxy-naphthalen-2-yl)-9H-purine-2,6-diamine]", "inhibition at 10 µM": "≥ 80"}
{"compound": "CCC(C)(C)Nc1nc(Nc2ccc3nsnc3c2)nc2[nH]cnc12", "note": "[Example 53, N*2*-Benzo[1,2,5]thiadiazol-5-yl-N*6*-(1,1-dimethyl-propyl)-9H-purine-2,6-diamine]", "inhibition at 10 µM": "< 50"}
{"compound": "CCc1nc2c(NC(C)CC(N)=O)nc(Nc3ccc4ncsc4c3)nc2[nH]1", "note": "(stereo not drawn) [Example 30, 3-[2-(Benzothiazol-6-ylamino)-8-ethyl-9H-purin-6-ylamino]-butyramide]", "inhibition at 10 µM": 0}
{"compound": "CC(C)(C)Nc1nc(Nc2ccc(-c3nc4ccccc4s3)cc2)nc2[nH]cnc12", "note": "[Example 20, N*2*-(4-Benzothiazol-2-yl-phenyl)-N*6*-tert-butyl-9H-purine-2,6-diamine]", "inhibition at 10 µM": "65 to 80"}
{"compound": "Cc1nc2ccc(Nc3nc(NC(C)(C)Cc4ccc(F)cc4)c4nc[nH]c4n3)cc2s1", "note": "[Example 58, N*6*-[2-(4-Fluoro-phenyl)-1,1-dimethyl-ethyl]-N*2*-(2-methyl-benzothiazol-6-yl)-9H-purine-2,6-diamine]", "inhibition at 10 µM": "< 50"}
{"compound": "CCCc1nc2c(NC(C)(C)C)nc(Nc3ccc4ncsc4c3)nc2[nH]1", "note": "[Example 32, N*2*-Benzothiazol-6-yl-N*6*-tert-butyl-8-propyl-9H-purine-2,6-diamine]", "inhibition at 10 µM": "< 50"}
{"compound": "c1ccc(C(Nc2nc(Nc3ccc4ncsc4c3)nc3[nH]cnc23)c2ccccc2)cc1", "note": "[Example 11, N*6*-Benzhydryl-N*2*-benzothiazol-6-yl-9H-purine-2,6-diamine]", "inhibition at 10 µM": "< 50"}
{"compound": "c1cnc2ccc(Nc3nc(N4CCN(c5cnccn5)CC4)c4nc[nH]c4n3)cc2c1", "note": "[Example 64, Quinolin-6-yl-[6-(2,3,5,6-tetrahydro-[1,2′]bipyrazinyl-4-yl)-9H-purin-2-yl]-amine]", "inhibition at 10 µM": "< 50"}
{"compound": "CCc1nc2c(NC(C)C(F)(F)F)nc(Nc3ccc4ncsc4c3)nc2[nH]1", "note": "(stereo not drawn) [Example 28, N*2*-Benzothiazol-6-yl-8-ethyl-N*6*-(2,2,2-trifluoro-1-methyl-ethyl)-9H-purine-2,6-diamine]", "inhibition at 10 µM": "50 to 65"}
{"compound": "CNc1nc2c(NC(C)(C)C)nc(Nc3ccc4ccccc4c3)nc2[nH]1", "note": "[Example 44, N*6*-tert-Butyl-N*8*-methyl-N*2*-naphthalen-2-yl-9H-purine-2,6,8-triamine]", "inhibition at 10 µM": "65 to 80"}
{"compound": "CCc1nc2c(NC(C)(C)C)nc(Nc3ccc4ccccc4c3)nc2[nH]1", "note": "[Example 73, N*6*-tert-Butyl-8-ethyl-N*2*-naphthalen-2-yl-9H-purine-2,6-diamine]", "inhibition at 10 µM": "< 50"}
{"compound": "CC(C)(C)Nc1nc(Nc2ccc3nc(C(C)(C)C)sc3c2)nc2[nH]cnc12", "note": "[Example 18, N*6*-tert-Butyl-N*2*-(2-tert-butyl-benzothiazol-6-yl)-9H-purine-2,6-diamine]", "inhibition at 10 µM": "65 to 80"}
{"compound": "Cc1cc2cc(Nc3nc(NC(C)(C)C)c4nc[nH]c4n3)ccc2[nH]1", "note": "[Example 23, N*6*-tert-Butyl-N*2*-(2-methyl-1H-indol-5-yl)-9H-purine-2,6-diamine]", "inhibition at 10 µM": "< 50"}
{"compound": "CC(C)(Cc1ccc(F)cc1)Nc1nc(Nc2ccc3ncccc3c2)nc2[nH]cnc12", "note": "[Example 56, N*6*-[2-(4-Fluoro-phenyl)-1,1-dimethyl-ethyl]-N*2*-quinolin-6-yl-9H-purine-2,6-diamine]", "inhibition at 10 µM": "< 50"}
{"compound": "OC1CCC(Nc2nc(Nc3ccc4ncsc4c3)nc3[nH]cnc23)CC1", "note": "(stereo not drawn) [Example 9, 4-[2-(Benzothiazol-6-ylamino)-9H-purin-6-ylamino]-cyclohexanol]", "inhibition at 10 µM": "< 50"}
